Data reported in US11553713B2, “Polyalcohol, carbohydrate, nucleobase and nucleotide compositions and uses thereof” (Chunbo Zhang, priority 2015, dated 2023).

Experiments:
female mosquitoes [1] = assay: Efficacy by ingestion: feeder test in 6-liter cage, death rate of female mosquitoes; assay type: in vivo; conditions: for Death Rate / Death Rate within 24 hrs after treatment removed / Death Rate within 2 days after treatment removed / Death Rate within 3 days after treatment removed / Death Rate within 4 days after treatment removed: 10% sugar in CPDA, 24 hrs; for timing of death after ingestion (“delayed” death): after treatment was removed
Source text: Female mosquitoes were used in the experiment because only female mosquitoes bite humans and animals and transmit infectious diseases.
(2R)-3-fluoropropane-1,2-diol (rFOH) was used as the active agent at various concentrations. A sugar feeder containing 10% sucrose, which is a regular mosquito feeder in a laboratory setting, was used as a regular food source in free choice studies. A free choice study allows the pests to select which feeder to feed on when given two or more choices.
In a two-choice test, a 6-liter cage was supplied with two feeders, one contained 5% rFOH and 10% sucrose in CPDA and the other one contained 10% sucrose without any rFOH or CPDA. 100 female mosquitoes were placed in the cage having the two feeders such that the mosquitoes chose freely which feeder to feed on. After 24 hours of feeding in the cage, over 80% of mosquitoes were dead. […] When the concentration of rFOH was reduced to 1% or 0.15%, its effectiveness remained the same. Over 80% of mosquitoes were dead due to 24 hours of feeding with rFOH.
Subsequent to 24 hours of feeding, rFOH feeder was removed from the cage and a regular sugar feeder (10% sucrose) was provided. In the next day, 5-20% of residual death was observed, indicating a delayed death after rFOH ingestion.
In a further study, mosquitoes were fasted for 24 hours before feeding to ensure that all mosquitoes have the capacity for food intake. […] Thus, fasting is not a cause of mosquito death during a series of experiments.
The experiments determined that 0.1% rFOH was sufficient to achieve 50% death (LD50) under various conditions. In one study, 100 mosquitoes were caged in a 6-liter space and fasted for 24 hours. Subsequently, the mosquitoes were fed on two feeders giving their free choices for 0.1% rFOH containing 10% sucrose in CPDA or 10% sucrose without rFOH for 24 hours, resulting in 43% death. In a parallel study in which the cage was supplied with a single feeder, the 0.1% rFOH feeder containing 10% sucrose in CPDA, which caused 44% of death after 24 hours of feeding.
Similar experiments as disclosed above were performed with various rFOH concentrations under various conditions. The rFOH composition contained 10% sugar in CPDA solution unless specified otherwise.
Similar experiments as disclosed above were performed on female mosquitoes to determine LD50. The rFOH composition contained 10% sugar in CPDA solution unless specified otherwise.
(§1) Similar experiments as disclosed above were performed on female mosquitoes using different active agents at various concentrations. The active agent composition contained 10% sugar in CPDA solution unless specified otherwise.

[2] = system: Methicillin/oxacillin resistant Staphylococcus aureus (MRSA) strain (ATCC 43300); assay: MIC test, broth microdilution (CLSI M07-A9); assay type: cell-based
Method: (§2) The effects of pesticides disclosed herein on various bacteria were tested by determining the minimal inhibitory concentration (MIC) of the pesticides. MIC of an antimicrobial agent is the lowest concentration of the antimicrobial agent that inhibits a given bacterial isolate from multiplying and producing visible growth in the test system. The MIC of rFOH and BrOH was determined in the laboratory by incubating a known quantity of bacteria with a series of dilutions of the active agents and comparing their effects with those of known antimicrobial agents. Table 6 lists the representative bacterial strains and the conditions in MIC tests. Antimicrobial tests of the active agents were conducted according to “Methods for Dilution Antimicrobial Susceptibility Tests for Bacteria That Grow Aerobically” by Clinical and Laboratory Standards Institute (CLSI) (CLSI document M07-A9, 2012). In the study, methicillin/oxacillin resistant Staphylococcus aureus (MRSA) strain (ATCC 43300) was routinely under screening with 4 ug/ml oxacillin. Escherishia coli DH5α was a nonpathogenic laboratory strain. […] When the DH5α/plasmid (DH5P) colony was used, the colony was maintained in the presence of 100 ug/ml ampicillin.
(§3) MIC tests were conducted in 96 well microtiter plates with a total volume of 150 ul broth in each well. The directly colony suspension method (CLSI document M07-A9, 2012) was applied to obtain MIC for antimicrobial tests of the active agents. After colonies were freshly incubated overnight, colonies were suspended in sterile water to adjust the inoculum to a turbidity equivalent to a 0.5 McFarland standard (corresponding to approximately 1.5×10^8 CFU/ml). Within 10 minutes, the inoculum was adjusted by dilution in broth to reach a final concentration of 5×10^5 CFU/ml. A series of various concentrations of the active agents were applied to determine the MIC. In the same microtiter plate, an internal standard formulated by a concentration series of standard antibiotic agent was incubated in parallels to allow for back-to-back comparison.

Escherishia coli DH5α = assay: MIC test, broth microdilution (CLSI M07-A9); assay type: cell-based
Method: as §2, §3

[3] = system: Escherishia coli DH5α transformed with a pcDNA3 plasmid (DH5P); assay: MIC test, broth microdilution (CLSI M07-A9); assay type: cell-based
Method: as §2, §3

female mosquitoes [4] = assay: Membrane feeding test, death rate of female mosquitoes; assay type: in vivo; conditions: active agent at 1%; 18 hrs fasting; membrane feeding for 1 hour and 45 minutes before sugar feeder provided
Method: as §1
This is because membrane feeding provides only a small space accessible to a limited number of mosquitoes for feeding.

Stability of FOH = assay type: physicochemical; conditions: normal temperature and pressure
Method: In some embodiments, 3-fluoropropane-1,2-diol (FOH) (R^1═R^2=R^3═R^5═H, n=2, m=0 in formula I) is exemplified as an active agent of the compositions disclosed herein. FOH has two enantiomeric isomers (2r)-3-fluoropropane-1,2-diol (rFOH) and (2s)-3-fluoropropane-1,2-diol (sFOH). FOH is a nonvolatile chemical having a boiling point of 205.4° C. at 760 mm Hg, a flash point of 87.2° C., and a density of 1.192 g/cm^3. FOH is stable under normal temperature and pressure. The chemical synthesis of FOH is known in the art (Dummel et al., J. Med. Chem. 12(2): 347 (1969)). The chemical structure of FOH, representing both rFOH and sFOH, is shown below: […]

[5] = active agent at 0.5%, 24 hrs fasting, sugar feeder not provided
[6] = active agent at 1.5%, 24 hrs fasting, sugar feeder not provided
[7] = active agent at 1%, 24 hrs fasting, sugar feeder not provided
[8] = Tryptic soy broth, 37° C. for 24 hrs, listed as BrOH
[9] = active agent at 0.5%, not fasted, sugar feeder provided for free choice
[10] = internal standard in the same microtiter plate

OCC1(CO)CCC1 [1,1-Bis(hydroxymethyl)cyclobutane]
Death Rate (female mosquitoes [1]; [5]): 50%

OC1CCCCC1O (stereo not drawn) [1,2-cyclohexanediol]
Death Rate (female mosquitoes [1]; [5]): 22%

CC(C)(CO)CO [2,2-Dimethyl-1,3-propanediol]
Death Rate (female mosquitoes [1]; active agent at 0.5%, 24 hrs fasting, sugar feeder provided for free choice): 10%

CC(C)(O)C(C)(C)O [2,3-Dimethylbutane-2,3-diol]
Death Rate (female mosquitoes [1]; [6]): 53%

NC(CO)CO [2-Amino-1,3-propanediol]
Death Rate (female mosquitoes [1]; [5]): 16%

Nc1nc(F)nc2nc[nH]c12 [2-Fluoroadenine]
Death Rate (female mosquitoes [1]; active agent at 0.2%, 24 hrs fasting, sugar feeder provided for free choice): 30%

Nc1nc(F)nc2c1ncn2[C@@H]1O[C@H](CO)[C@@H](O)[C@H]1O [2-Fluoroadenosine]
Death Rate within 24 hrs after treatment removed (female mosquitoes [1]; [7]): 22% within
Death Rate within 2 days after treatment removed (female mosquitoes [1]; [7]): removed, 47%
Death Rate within 3 days after treatment removed (female mosquitoes [1]; [7]): removed, 64%
Death Rate within 4 days after treatment removed (female mosquitoes [1]; [7]): 75-80% within
Death Rate within 4 days after treatment removed (female mosquitoes [1]; active agent at 1%, 24 hrs fasting, sugar feeder not provided, listed as 2-fluoroadenosine): 75-80%
timing of death after ingestion (“delayed” death) (female mosquitoes [1]): delayed

CC(CO)CO [2-Methyl-1,3-propanediol]
Death Rate (female mosquitoes [1]; [5]): 12%

OCC(CO)c1ccccc1 [2-Penyl-1,3-propanediol]
Death Rate (female mosquitoes [1]; [6]): 61%

O=c1[nH]c(=O)n([C@H]2C[C@H](O)[C@@H](CO)O2)cc1F [2′-Deoxy-5-fluorouridine]
Death Rate (female mosquitoes [1]; active agent at 2%, 24 hrs fasting, sugar feeder not provided): 24%

OCC(O)CBr (stereo not drawn) [3-Bromopropane-1,2-diol]
MIC ([2]; Mueller Hinton broth with 2% NaCl and 50 ug/ml CaCl2, 35° C. for 24 hrs, listed as BrOH): 2.5%
MIC (Escherishia coli DH5α; [8]): 0.025%
MIC [3, 8]: 0.2%
Death Rate (female mosquitoes [1]; active agent at 0.15%, 24 hrs fasting, sugar feeder provided for free choice, death found for a week after treatment was removed): 30-52%
Death Rate (female mosquitoes [1]; active agent at 0.2%, 24 hrs fasting, sugar feeder not provided, death found for a week after treatment was removed): >85% death
timing of death after ingestion (“delayed” death) (female mosquitoes [1]): Delayed

OCC(O)CCl (stereo not drawn) [3-Chloro-1,2-propanediol]
Death Rate (female mosquitoes [1]; active agent at 0.15%, 24 hrs fasting, sugar feeder not provided): >85%

OC[C@H]1O[C@@H](O)[C@H](O)[C@@H](O)[C@@H]1F [4-Deoxy-4-fluoro-β-D-glucopyranose]
Death Rate in 2 hours (female mosquitoes [4]): 10% in 2
Death Rate in 24 hours (female mosquitoes [4]): hours, 17%
Death Rate in the first hour (female mosquitoes [4]): 2% in the

C[C@@H](Cl)C(=O)O [(R)-(+)-2-Chloropropionic acid]
Death Rate (female mosquitoes [1]; [5]): 10%

OCC(O)CF (stereo not drawn) [FOH, 3-fluoropropane-1,2-diol]
stability (Stability of FOH): stable

Nc1ccn([C@@H]2O[C@H](CO)[C@@H](O)C2(F)F)c(=O)n1 [Gemcitabine, reference compound]
Death Rate within 24 hrs after treatment removed (female mosquitoes [1]; [9]): 3% within
Death Rate within 2 days after treatment removed (female mosquitoes [1]; [9]): removed, 36%
Death Rate within 3 days after treatment removed (female mosquitoes [1]; [9]): 66%

CC1(C)S[C@@H]2[C@H](NC(=O)[C@H](N)c3ccccc3)C(=O)N2[C@H]1C(=O)O [ampicillin, reference compound]
Comparable Effectiveness (standard antibiotic concentration as effective as 0.4% rFOH) (Escherishia coli DH5α; [10]): 19 µg/mL
Comparable Effectiveness (standard antibiotic concentration as effective as 0.4% rFOH) [3, 10]: 240 µg/mL

CO[C@@]1(NC(=O)Cc2cccs2)C(=O)N2C(C(=O)O)=C(COC(N)=O)CS[C@@H]21 [cefoxitin, reference compound]
Comparable Effectiveness (standard antibiotic concentration as effective as 0.4% rFOH) [2, 10]: 48 µg/mL

OC[C@H](O)CF [sFOH, (2s)-3-fluoropropane-1,2-diol]
Death Rate (female mosquitoes [1]; active agent at 0.3%, 24 hrs fasting, sugar feeder not provided, death found for a week after treatment was removed): 42-68%
Death Rate (female mosquitoes [1]; active agent at 0.5%, 24 hrs fasting, sugar feeder not provided, death found for a week after treatment was removed): >85% death
timing of death after ingestion (“delayed” death) (female mosquitoes [1]): Delayed
